Results reported in US12486259B2, “FXR agonist having pyrazine structure, and preparation method and use” (JIANGSU TASLY DIYI PHARMACEUTICAL CO., LTD., priority 2020, dated 2025).
Values belong to the compound of their own block, whether it stands above or below them.

How the values were obtained:
[1] = biological target: T1, GST-labeled recombinant human FXR protein (Homo sapiens, UniProt Q96RI1); experiment: Agonistic activity on FXR receptor (GST-FXR / SRC-1 bead assay, protein level); format: biochemical; conditions: for EC50: 0.4 nM FXR, 30 nM SRC-1, protein level; for FXR agonistic activity at protein level (in words): judgement on Table 1 results
T1 construct: purchased Invitroren (so in the source)
T1 sequence (Q96RI1 262-486 limits assumed): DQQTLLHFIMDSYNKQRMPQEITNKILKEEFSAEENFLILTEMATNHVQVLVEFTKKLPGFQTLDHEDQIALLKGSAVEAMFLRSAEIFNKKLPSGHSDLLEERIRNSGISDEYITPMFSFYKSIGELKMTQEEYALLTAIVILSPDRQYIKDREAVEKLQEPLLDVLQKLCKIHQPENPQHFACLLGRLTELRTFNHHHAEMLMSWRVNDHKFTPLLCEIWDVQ
T1 sequence (Q15788 676-700 partner limits assumed): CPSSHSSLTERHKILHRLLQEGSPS
Protocol: Experimental procedures: FXR (GST-labeled recombinant human FXR protein, manufacturer: Invitroren, Item number: PV4835) and SRC-1 (steroid receptor co-activator-1) are thawed on ice. Three solutions of ABC are prepared by a buffer solution, solution A, 0.4 n M FXR and 30 nM SRC-1; solution B, 10 ug/ml Acceptor Beads; solution C, 10 ug/ml Donor Beads. Solution A is added to the plate at 15 uL per well. It is incubated at room temperature for 1 hour. Solution B is added to the plate at 7.5 uL per well. It is incubated at room temperature for 1 hour. Solution C is added to the plate at 7.5 uL per well. It is incubated at room temperature for 1 hour. It is read from the microplate reader Envision. The data are curve fitted by using Prism 5.0 to calculate the EC50.

in vitro = conditions: human; for Papp A→B: Caco-2, Papp A-B; for recovery: Caco-2, Recovery rate A-B
Protocol: The bi-directional transport of target compounds from apical side (AP) to basolateral side (BL) and from BL side to AP side is studied by using human colon adenocarcinoma cell line Caco-2 monolayer model. The transport parameters, apparent permeability coefficient (Papp) and efflux ratio are calculated by quantitative analysis with high performance liquid chromatography (HPLC).

[2] = tested on: C57/BL6 mice fed MCD diet; experiment: Pharmacodynamic test in methionine-choline deficient diet (MCD) model of non-alcoholic fatty liver disease; format: in vivo; conditions: MCD mice, obeticholic acid 40 mpk
Protocol: Animal strain: C57/BL6, Animal Grade: SPF Grade, Gender: male, Animal Age: 8 weeks old, Animals Received Date: 2018 Sep. 28, Animal Source: Shanghai Lingchang Biotechnology Co. Ltd., Animal Certificate No: SCXK (Shanghai)2013-0018 2013001836799, Mouse feeding Environment: temperature 20-26° C., humidity 40-70%, 12 hour day and night cycle.
5% Solutol HS15/Normal saline: after Solutol HS15 (polyethylene glycol 15 hydroxystearate solubilizer) is dissolved in a water bath at 37° C., 5 ml of it is dissolved in 100 ml of normal saline, thoroughly stirred for later use.
Obeticholic acid/5% Solutol HS15/Normal saline: 0.15 ml Solutol HS15 is added to accurately weighed 12 mg obeticholic acid to fully dissolve it, and 2.85 ml normal saline is added, vigorously mixed and dissolved by the ultrasound. • TM-01 Group/5% Solutol HS15/Normal saline: 2.5 ml of 6 mg/ml TM-01 suspension is taken, 2.5 ml of 5% Solutol HS15/normal saline is added, and the mixture is mixed well. • TM-02 Group/5% Solutol HS15/Normal saline: 2.5 ml of 6 mg/ml TM-02 suspension is taken, 2.5 ml of 5% Solutol HS15/normal saline is added, and the mixture is mixed well. • TM-06 Group/5% Solutol HS15/Normal saline: 2.5 ml of 6 mg/ml TM-06 suspension is taken, 2.5 ml of 5% Solutol HS15/Normal saline is added, and the mixture is mixed well. • TM-09 Group/5% Solutol HS15/Normal saline: 2.5 ml of 6 mg/ml TM-09 suspension is taken, 2.5 ml of 5% Solutol HS15/Normal saline is added, and the mixture is mixed well.
Menstruum and test compounds are administered by gavage at a dose volume of 10 ml/kg;
After reaching the animal house, 70 8-week-old C57/BL6 mice are fed adaptively and randomly divided into 7 groups according to body weight after the average body weight reaches 23 g. They are given the model feed. The first group receives the control diet MCS and the remaining groups receive the MCD diet, while each group of mice receives compound treatment as follows: • Group 1. Control Group: MCS, menstruum, administered once daily by gavage; • Group 2. Model Group: MCD, menstruum, administered once daily by gavage; • Group 3. Obeticholic acid group: MCD, 40 mpk obeticholic acid, administered once daily by gavage; • Group 4. TM-01 Group: MCD, 30 mpk TM-01, administered once daily by gavage; • Group 5. TM-02 Group: MCD, 30 mpk TM-02, administered once daily by gavage; • Group 6. TM-06 Group: MCD, 30 mpk TM-06, administered once daily by gavage; • Group 7. TM-09 Group: MCD, 30 mpk TM-09, administered once daily by gavage; 2.4 Experimental Methods
Body weight and food intake are measured weekly during the experiment. Twenty-one days after administration, tail tips are bled with microcapillaries for AST, ALT measurements. Twenty-eight days after administration, mice are terminated, hearts are bled, and liver tissues are collected and weighed. One portion is snap frozen with liquid nitrogen for subsequent analysis and the other portion are fixed for pathological analysis.
Mouse blood is centrifuged at 5000 rpm for 10 minutes and supernatants are collected for determination of TG (triglycerides), TC (total cholesterol), HDL (high density lipoprotein), LDL (low density lipoprotein), AST (aspartate aminotransferase) and ALT (alanine aminotransferase).
AST and ALT after administration for three and four weeks are determined according to the instructions of kit. The blood lipid index 4 weeks after administration is sent to Adicon Medical Laboratory Co. Ltd. for detection.
The livers are removed from −80° C., homogenized in PBS (phosphate buffered saline), extracted with chloroform methanol organic phase, and subjected to TC and TG assays using the kit, normalized for protein content.
Four weeks after administration, the mice are anesthetized. The heart is bled, the liver is isolated and weighed. The right lobe is snapfrozen with liquid nitrogen and stored at −80° C. for liver lipid analysis. The left lobe is isolated and fixed in 10% formalin for subsequent HE and Sirius Red staining. […]

[3] = blood, 3 weeks, TM 30 mpk, gavage
[4] = blood, 4 weeks, TM 30 mpk, gavage
[5] = blood, after 4 weeks, TM 30 mpk
[6] = liver, after 4 weeks, TM 30 mpk

SMILES: COCCc1ccc(OCC(O)CNC(C)C)cc1 (centres unmarked) [Metoprolol, reference compound]
Papp A→B (in vitro): 18.1 ×10⁻⁶ cm/s
Papp A→B (in vitro; Average): 18.1 ×10⁻⁶ cm/s
Papp A→B (in vitro; Sample-01): 19.5 ×10⁻⁶ cm/s
Papp A→B (in vitro; Sample-02): 16.8 ×10⁻⁶ cm/s
recovery (in vitro; Average): 93.8%
recovery (in vitro; Sample-01): 93.2%
recovery (in vitro; Sample-02): 94.3%

SMILES: CC(C)(C)NCC(O)COc1cccc2c1CC(O)C(O)C2 (centres unmarked) [Nadolol, reference compound]
Papp A→B (in vitro): 0.07 ×10⁻⁶ cm/s
Papp A→B (in vitro; Average): 0.07 ×10⁻⁶ cm/s
Papp A→B (in vitro; Sample-01): 0.07 ×10⁻⁶ cm/s
Papp A→B (in vitro; Sample-02): 0.06 ×10⁻⁶ cm/s
recovery (in vitro; Average): 89.8%
recovery (in vitro; Sample-01): 91.5%
recovery (in vitro; Sample-02): 88%

SMILES: CC[C@H]1[C@@H](O)[C@@H]2[C@H](CC[C@]3(C)[C@@H]([C@H](C)CCC(=O)O)CC[C@@H]23)[C@@]2(C)CC[C@@H](O)C[C@@H]12 [obeticholic acid, reference compound]
Weight, 0 week ([2]; 0 week, TM compounds 30 mpk, once daily by gavage): 23.72 ± 0.46 g
Food intake, 1 week ([2]; 1 week, TM 30 mpk, gavage): 2.992 ± 0.396 g
Weight, 1 week ([2]; 1 week, TM compounds 30 mpk, once daily by gavage): 21.28 ± 0.42 g
Food intake, 2 weeks ([2]; 2 weeks, TM 30 mpk, gavage): 2.945 ± 0.315 g
Weight, 2 weeks ([2]; 2 weeks, TM compounds 30 mpk, once daily by gavage): 18.97 ± 0.41 g
Food intake, 3 weeks ([2]; 3 weeks, TM 30 mpk, gavage): 2.092 ± 0.320 g
Weight, 3 weeks ([2]; 3 weeks, TM compounds 30 mpk, once daily by gavage): 17.60 ± 0.35 g
Food intake, 4 weeks ([2]; 4 weeks, TM 30 mpk, gavage): 2.073 ± 0.031 g
Weight, 4 week ([2]; 4 weeks, TM compounds 30 mpk, once daily by gavage): 15.72 ± 0.35 g
liver weight ([2]; after 4 weeks, TM 30 mpk): 0.90 ± 0.03 g
liver/body weight ([2]; after 4 weeks, TM 30 mpk): 5.76 ± 0.26 %
ALT, 3 weeks [2, 3]: 323.00 ± 37.79 U/L
AST, 3 weeks [2, 3]: 197.24 ± 21.54 U/L
ALT, 4 weeks [2, 4]: 93.37 ± 10.36 U/L
AST, 4 weeks [2, 4]: 126.59 ± 20.25 U/L
HDL (blood lipid) [2, 5]: 0.55 ± 0.01 mmol/L
LDL (blood lipid) [2, 5]: 2.80 ± 0.03 mmol/L
TC (blood lipid) [2, 5]: 0.86 ± 0.04 mmol/L
TG (blood lipid) [2, 5]: 0.56 ± 0.02 mmol/L
HE score ([2]; liver pathology score (Table 12 criteria), 4 weeks, TM 30 mpk): 2.6
Sirius red staining area ([2]; liver, 4 weeks, TM 30 mpk): 0.344 ± 0.057%
liver TC [2, 6]: 35.7 ± 3.38 µmol/g protein
liver TG [2, 6]: 298 ± 36.2 µmol/g protein

Now from value to compound, other results behind:

EC50 [1]: 1.8 µM
SMILES: O=C(O)c1cccc(N2CC(O)(c3ccc(OCc4c(-c5c(Cl)cccc5Cl)noc4C4CC4)cc3Cl)C2)c1 [Compound M2, reference compound]
FXR agonistic activity at protein level (in words) [1]: less active than the compounds of the present invention

EC50 [1]: 0.24 µM
SMILES: OC1(c2cnc(OCc3c(-c4c(Cl)cccc4Cl)noc3C3CC3)cn2)CC(c2cccc(Br)c2)C1 (centres unmarked) [TM-03, 3-(3-bromophenyl)-1-(5-((5-cyclopropyl-3-(2,6-dichlorophenyl)isoxazol-4-yl)methoxy)pyrazine-2-yl) cyclobutanol]

EC50 [1]: 1.35 µM
SMILES: CS(=O)(=O)c1cccc(C2CC(O)(c3cnc(OCc4c(-c5c(Cl)cccc5Cl)noc4C4CC4)cn3)C2)c1 (centres unmarked) [TM-04, 1-(5-((5-cyclopropyl-3-(2,6-dichlorophenyl)isoxazol-4-yl)methoxy)pyrazine-2-yl)-3-(3-(methylsulfonyl)phenyl) cyclobutanol]

EC50 [1]: 5.01 µM
FXR agonistic activity at protein level (in words) [1]: poor activity
SMILES: OC1(c2cnc(OCc3c(-c4c(Cl)cccc4Cl)noc3C3CC3)cn2)CC(c2cccc(Sc3ccccc3)c2)C1 (centres unmarked) [TM-05, 1-(5-((5-cyclopropyl-3-(2,6-dichlorophenyl)isoxazol-4-yl)methoxy)pyrazine-2-yl)-3-(3-(phenylthio)phenyl) cyclobutanol]

EC50 [1]: 4.21 µM
FXR agonistic activity at protein level (in words) [1]: poor activity
SMILES: O=C(O)c1cccc(C2CC(O)(c3cnc(OCc4c(-c5c(Cl)cccc5Cl)noc4-c4ccccc4)cn3)C2)c1 (centres unmarked) [TM-07, 3-(3-(5-(5-phenyl-3-(2,6-dichlorophenyl)isoxazole-4-ylmethoxy)-2-pyrazine)-1-hydroxycyclobutane) benzoic acid]

EC50 [1]: 5.66 µM
FXR agonistic activity at protein level (in words) [1]: poor activity
SMILES: Cc1cc(C(=O)O)cc(C2CC(O)(c3cnc(OCc4c(-c5c(Cl)cccc5Cl)noc4-c4ccccc4)cn3)C2)c1 (centres unmarked) [TM-10, 3-(3-(5-((3-(2,6-dichlorophenyl)-5-phenylisoxazol-4-yl)methoxy)pyrazine-2-yl)-3-hydroxycyclobutyl)-5-methyl benzoic acid]
